In US10472395B2, “Cyclic peptide analogs and conjugates thereof” (Sirenas LLC, priority 2015, dated 2019):
Numbered stars: 1 amine (or outer) side, 2 acyl side, 3 side chain; on linkers, the order of the positions; unused ones are H or OH. Bridge positions count the residues as written; N and C are the ends. Square brackets hold non-standard residues; d marks the D form. Peptide text beside a SMILES is read from it. ξ: configuration not given here. X8 = C/C=C(\C)[C@@H](O[*:2])[C@@H](C)CC/C=C(\C)C(=O)[*:1]; X2 = C/C(=C\CCC[C@@H](O[*:2])C(C)C)C(=O)[*:1]; X7 = C/C(=C\CCC[C@H](O[*:2])C(C)C)C(=O)[*:1]; X1 = C/C(=C\CC[C@@H](C)CO[*:2])C(=O)[*:1]; X5 = C/C(=C\CC[C@H](C)CO[*:2])C(=O)[*:1]; dNMeF = CN[C@H](Cc1ccccc1)C(=O)O; Ile(3ξ) = CCC(C)[C@H](N)C(=O)O; dHica = CC(C)C[C@@H](O)C(=O)O; dNMeA = CN[C@H](C)C(=O)O; Sar = CNCC(=O)O

Columns and labels:
[1] = tested on: BT-474 human mammary gland ductal carcinoma cells; experiment: Inhibitory response of test compounds against BT-474 cells (Cell Titer-Glo, 72 h); assay type: cell-based; details: Homo sapiens
Method: (§1) BT-474 human mammary gland ductal carcinoma cells were seeded in a clear polystyrene 96-well microculture plate (Corning® Costar® 96-well flat bottom plate, Cat.#3997) in a total volume of 90 μL/well. After 24 hours of incubation in a humidified incubator at 37° C. with 5% CO2 and 95% air, 10 μL of 10×, serially diluted test agents in growth medium were added to each well (10 pt dose response curve, highest concentration 10 μM of test agent). After 72 hours of culture in a humidified incubator at 37° C., in an atmosphere of 5% CO2 and 95% air, the plated cells and Cell Titer-Glo® (Promega G7571) reagents were brought to room temperature to equilibrate for 30 minutes. 100 μL of Cell Titer-Glo® reagent was added to each well. The plate was shaken for two minutes and then left to equilibrate for ten minutes. The media/Cell Titer-Glo® reagent was transferred to a white polystyrene 96-well microculture plate (Corning® Costar® 96-well flat bottom plate, Cat.#3917) before reading luminescence on a Tecan GENios microplate reader.
(§2) Percent inhibition of cell growth was calculated relative to untreated control wells. The IC50 value for the test agents was determined using Prism 6.05 by curve-fitting of the data using the following four parameter-logistic equation:
(§3) [formula] where Top is the maximal % of control absorbance, Bottom is the minimal % of control absorbance at the highest agent concentration, Y is the % of control absorbance, X is the agent concentration, IC50 is the concentration of agent that inhibits cell growth by 50% compared to the control cells, and n is the slope of the curve.

HCC1954 cells = experiment: Inhibitory response of test compounds against HCC1954 cells (method analogous to BT-474); assay type: cell-based; details: Homo sapiens
Method: as §1, §2, §3
Inhibitory response of test compounds against HCC1954 cells was determined using a method analogous to that used for BT-474 cells.

SMILES | IC50 [1] | IC50 (HCC1954 cells)
CCC(C)[C@@H]1NC(=O)CN(C)C(=O)[C@@H](Cc2ccccc2)N(C)C(=O)[C@H](C)NC(=O)[C@@H](CC(C)C)OC(=O)/C(C)=C/CCC[C@@H](C(C)C)OC(=O)[C@@H](C)NC1=O (stereo partly drawn) [Compound 86] ([dHica]A[dNMeF][Sar][Ile(3ξ)][dA]; linker N-C via X7) | 200 to 10000 nM | 200 to 10000 nM
CCC(C)[C@@H]1NC(=O)CN(C)C(=O)[C@@H](Cc2ccccc2)N(C)C(=O)[C@H](C)NC(=O)[C@@H](CC(C)C)OC(=O)/C(C)=C/CCC[C@H](C(C)C)OC(=O)[C@@H](C)NC1=O (stereo partly drawn) [Compound 87] ([dHica]A[dNMeF][Sar][Ile(3ξ)][dA]; linker N-C via X2) | 200 to 10000 nM | 200 to 10000 nM
CCC(C)[C@@H]1NC(=O)CN(C)C(=O)[C@@H](Cc2ccccc2)N(C)C(=O)[C@H](C)NC(=O)[C@@H](CC(C)C)OC(=O)/C(C)=C/CCC[C@@H](C(C)C)OC(=O)[C@@H](C)N(C)C1=O (stereo partly drawn) [Compound 88] ([dHica]A[dNMeF][Sar][Ile(3ξ)][dNMeA]; linker N-C via X7) | 200 to 10000 nM | 200 to 10000 nM
CCC(C)[C@@H]1NC(=O)CN(C)C(=O)[C@@H](Cc2ccccc2)N(C)C(=O)[C@H](C)NC(=O)[C@@H](CC(C)C)OC(=O)/C(C)=C/CCC[C@H](C(C)C)OC(=O)[C@@H](C)N(C)C1=O (stereo partly drawn) [Compound 89] ([dHica]A[dNMeF][Sar][Ile(3ξ)][dNMeA]; linker N-C via X2) | 20 to 200 nM | 200 to 10000 nM
C/C=C(\C)[C@H]1OC(=O)[C@@H](C)NC(=O)[C@H](C(C)CC)NC(=O)CN(C)C(=O)[C@@H](Cc2ccccc2)N(C)C(=O)[C@H](C)NC(=O)[C@@H](CC(C)C)OC(=O)/C(C)=C/CC[C@@H]1C (stereo partly drawn) [Compound 90] | < 20 nM | < 20 nM
CCC(C)[C@@H]1NC(=O)CN(C)C(=O)[C@@H](Cc2ccccc2)N(C)C(=O)[C@H](C)NC(=O)[C@@H](CC(C)C)OC(=O)/C(C)=C/CC[C@H](C)COC(=O)[C@@H](C)NC1=O (stereo partly drawn) [Compound 91] ([dHica]A[dNMeF][Sar][Ile(3ξ)][dA]; linker N-C via X5) | 200 to 10000 nM | 200 to 10000 nM
CCC(C)[C@@H]1NC(=O)CN(C)C(=O)[C@@H](Cc2ccccc2)N(C)C(=O)[C@H](C)NC(=O)[C@@H](CC(C)C)OC(=O)/C(C)=C/CC[C@@H](C)COC(=O)[C@@H](C)NC1=O (stereo partly drawn) [Compound 92] ([dHica]A[dNMeF][Sar][Ile(3ξ)][dA]; linker N-C via X1) | 200 to 10000 nM | 200 to 10000 nM
C/C=C(\C)[C@H]1OC(=O)[C@@H](C)NC(=O)[C@H](C(C)CC)NC(=O)CN(C)C(=O)[C@@H](Cc2ccccc2)N(C)C(=O)[C@H](C)NC(=O)[C@@H](CC(C)C)OC(=O)/C(C)=C/C[C@H](OC(=O)N(C)CCN(C)C(=O)OC(C)(C)C)[C@@H]1C (stereo partly drawn) [Compound 93] | < 20 nM | < 20 nM
C/C=C(\C)[C@H]1OC(=O)[C@@H](C)NC(=O)[C@H](C(C)CC)NC(=O)CN(C)C(=O)[C@@H](Cc2ccccc2)N(C)C(=O)[C@H](C)NC(=O)[C@@H](CC(C)C)OC(=O)/C(C)=C/C[C@H](OCSC)[C@@H]1C (stereo partly drawn) [Compound 94] | < 20 nM | < 20 nM
C/C=C(\C)[C@H]1OC(=O)[C@@H](C)NC(=O)[C@H](C(C)CC)NC(=O)CN(C)C(=O)[C@@H](Cc2ccc(OC)cc2)N(C)C(=O)[C@H](C)NC(=O)[C@@H](CC(C)C)OC(=O)/C(C)=C/C=C/[C@@H]1C (stereo partly drawn) [Compound 95] | < 20 nM | 20 to 200 nM
C/C=C(\C)[C@H]1OC(=O)[C@@H](C)NC(=O)[C@H]([C@H](C)CC)NC(=O)CN(C)C(=O)[C@@H](Cc2ccccc2)N(C)C(=O)[C@H](CCCCNC(=O)OC(C)(C)C)NC(=O)[C@@H](CC(C)C)OC(=O)/C(C)=C/C[C@H](O)[C@@H]1C [Compound 96] | < 20 nM | < 20 nM
C/C=C(\C)[C@H]1OC(=O)[C@@H](C)NC(=O)[C@H]([C@H](C)CC)NC(=O)CN(C)C(=O)[C@@H](Cc2ccc(OCc3ccccc3)cc2)N(C)C(=O)[C@H](C)NC(=O)[C@@H](CC(C)C)OC(=O)/C(C)=C/C=C/[C@@H]1C [Compound 98] | < 20 nM | < 20 nM
C/C=C(\C)[C@H]1OC(=O)[C@@H](C)NC(=O)[C@H](C(C)CC)NC(=O)CN(C)C(=O)[C@@H](Cc2ccc(O)cc2)N(C)C(=O)[C@H](C)NC(=O)[C@@H](CC(C)C)OC(=O)/C(C)=C/C=C/[C@@H]1C (stereo partly drawn) [Compound 99] | 20 to 200 nM | 200 to 10000 nM
C/C=C(\C)[C@H]1OC(=O)[C@@H](C)N(C)C(=O)[C@H](C(C)CC)NC(=O)CN(C)C(=O)[C@@H](Cc2ccccc2)N(C)C(=O)[C@H](C)NC(=O)[C@@H](CC(C)C)OC(=O)/C(C)=C/CC[C@@H]1C (stereo partly drawn) [Compound 100] ([dHica]A[dNMeF][Sar][Ile(3ξ)][dNMeA]; linker N-C via X8) | < 20 nM | 20 to 200 nM
C/C=C(\C)[C@H]1OC(=O)[C@@H](C)NC(=O)[C@H]([C@H](C)CC)NC(=O)CN(C)C(=O)[C@@H](Cc2ccc(F)cc2)N(C)C(=O)[C@H](C)NC(=O)[C@@H](CC(C)C)OC(=O)/C(C)=C/C[C@H](OCSC)[C@@H]1C [Compound 101] | < 20 nM | < 20 nM
C/C=C(\C)[C@H]1OC(=O)[C@@H](C)NC(=O)[C@H](C(C)CC)NC(=O)CN(C)C(=O)[C@@H](Cc2ccc(O)cc2)N(C)C(=O)[C@H](C)NC(=O)[C@@H](CC(C)C)OC(=O)/C(C)=C/CC[C@@H]1C (stereo partly drawn) [Compound 102] | < 20 nM | 20 to 200 nM
C/C=C(\C)[C@H]1OC(=O)[C@@H](C)NC(=O)[C@H]([C@H](C)CC)NC(=O)CN(C)C(=O)[C@@H](Cc2ccccc2)N(C)C(=O)[C@H](C)NC(=O)[C@@H](CC(C)C)OC(=O)/C(C)=C/C[C@H](OC(=O)NCCCCCCNC(=O)OC(C)(C)C)[C@@H]1C [Compound 105] | < 20 nM | < 20 nM
C/C=C(\C)[C@H]1OC(=O)[C@@H](C)NC(=O)[C@H]([C@H](C)CC)NC(=O)CN(C)C(=O)[C@@H](Cc2ccccc2)N(C)C(=O)[C@H](C)NC(=O)[C@@H](CC(C)C)OC(=O)/C(C)=C/C[C@H](OC(=O)NCCCOCCOCCOCCCNC(=O)OC(C)(C)C)[C@@H]1C [Compound 106] | < 20 nM | < 20 nM
C/C=C(\C)[C@H]1OC(=O)[C@@H](C)NC(=O)[C@H](C(C)CC)NC(=O)CN(C)C(=O)[C@@H](Cc2ccccc2)N(C)C(=O)[C@H](C)NC(=O)[C@@H](CC(C)C)OC(=O)/C(C)=C/C[C@H](CC(=O)NCCCCCCN)[C@@H]1C (stereo partly drawn) [Compound 107] | < 20 nM | 20 to 200 nM
C/C=C(\C)[C@H]1OC(=O)[C@@H](C)NC(=O)[C@H](C(C)CC)NC(=O)CN(C)C(=O)[C@@H](Cc2ccccc2)N(C)C(=O)[C@H](C)NC(=O)[C@@H](CC(C)C)OC(=O)/C(C)=C/C[C@H](OC(=O)NCCCOCCOCCOCCCN)[C@@H]1C (stereo partly drawn) [Compound 108] | 20 to 200 nM | 200 to 10000 nM
C/C=C(\C)[C@H]1OC(=O)[C@@H](C)NC(=O)[C@H]([C@H](C)CC)NC(=O)CN(C)C(=O)[C@@H](Cc2ccccc2)N(C)C(=O)[C@H](C)NC(=O)[C@@H](CC(C)C)OC(=O)/C(C)=C/C[C@H](CC(=O)N(C)CCN(C)C(=O)c2ccc(C=O)cc2)[C@@H]1C [Compound 110] | < 20 nM | 20 to 200 nM
C/C=C(\C)[C@H]1OC(=O)[C@@H](C)NC(=O)[C@H]([C@H](C)CC)NC(=O)CN(C)C(=O)[C@@H](Cc2ccccc2)N(C)C(=O)[C@H](C)NC(=O)[C@@H](CC(C)C)OC(=O)/C(C)=C/C[C@H](OC(=O)NCCCCCCNC(=O)CCOCCOCCOCCOCCNC(=O)c2ccc(C=O)cc2)[C@@H]1C [Compound 111] | > 10000 nM | > 10000 nM
C/C=C(\C)[C@H]1OC(=O)[C@@H](C)NC(=O)[C@H]([C@H](C)CC)NC(=O)CN(C)C(=O)[C@@H](Cc2ccccc2)N(C)C(=O)[C@H](C)NC(=O)[C@@H](CC(C)C)OC(=O)/C(C)=C/C[C@H](OC(=O)NCCCOCCOCCOCCCN=[N+]=N)[C@@H]1C [Compound 113] | < 20 nM | < 20 nM
C/C=C(\C)[C@H]1OC(=O)[C@@H](C)NC(=O)[C@H]([C@H](C)CC)NC(=O)CN(C)C(=O)[C@@H](Cc2ccccc2)N(C)C(=O)[C@H](C)NC(=O)[C@@H](CC(C)C)OC(=O)/C(C)=C/C[C@H](OC(=O)N(C)CCN(C)C=O)[C@@H]1C [Compound 114] | < 20 nM | 20 to 200 nM
C/C=C(\C)[C@H]1OC(=O)[C@@H](C)NC(=O)[C@H]([C@H](C)CC)NC(=O)CN(C)C(=O)[C@@H](Cc2ccccc2)N(C)C(=O)[C@H](C)NC(=O)[C@@H](CC(C)C)OC(=O)/C(C)=C/C[C@H](OC(=O)N(C)CCN(C)S(=O)(=O)c2ccc([N+](=O)[O-])cc2)[C@@H]1C [Compound 115] | < 20 nM | < 20 nM
C/C=C(\C)[C@H]1OC(=O)[C@@H](C)NC(=O)[C@H]([C@H](C)CC)NC(=O)CN(C)C(=O)[C@@H](Cc2ccccc2)N(C)C(=O)[C@H](C)NC(=O)[C@@H](CC(C)C)OC(=O)/C(C)=C/C[C@H](OC(=O)NCCCOCCOCCOCCCNC(=O)c2ccc(C(C)=O)cc2)[C@@H]1C [Compound 116] | < 20 nM | 20 to 200 nM
C/C=C(\C)[C@H]1OC(=O)[C@@H](C)NC(=O)[C@H]([C@H](C)CC)NC(=O)CN(C)C(=O)[C@@H](Cc2ccccc2)N(C)C(=O)[C@H](C)NC(=O)[C@@H](CC(C)C)OC(=O)/C(C)=C/C[C@H](OC(=O)N(C)CCN(C)C(=O)OCC[Si](C)(C)C)[C@@H]1C [Compound 117] | 20 to 200 nM | 20 to 200 nM
